test: method code SF-AS, from DOI: 10.1016/0006-2952(77)90261-1, PMID: 588293; settings: not given

Row | SMILES | logP
1 | CCC1(CC(C)C(C)C)C(=O)NC(=O)NC1=O (configuration not stated) | 2.02

same assay, conditions: pH 7.4

Row | SMILES | logD
2 | C=CCC1(CC(=C)Br)C(=O)NC(=O)NC1=O | 1.37
3 | CCCCCCCCC1(CC)C(=O)NC(=O)NC1=O | 3.08
4 | C=C(Br)CC1(C(C)CCC)C(=O)NC(=O)NC1=O (configuration not stated) | 2.09
5 | C=C(Br)CC1(C(C)CC)C(=O)NC(=O)N(C)C1=O (configuration not stated) | 2.43
6 | CCC1(C2=CCCCCC2)C(=O)NC(=O)N(C)C1=O (configuration not stated) | 2.82
7 | CCC1(C2=CCCCCC2)C(=O)NC(=O)NC1=O | 2.17
8 | C=C(Br)CC1(C(C)CC)C(=O)NC(=O)NC1=O (configuration not stated) | 1.72
9 | CCC1(C2=CC3CCC(C2)C3)C(=O)NC(=O)NC1=O (configuration not stated) | 2.53
10 | CCC1(C2=CC3CCC(C2)C3)C(=O)NC(=O)N(C)C1=O (configuration not stated) | 3.15
11 | CCC1(C2=CCCCC2)C(=O)NC(=O)N(C)C1=O (configuration not stated) | 2.25
12 | C=CCC1(CC(C)(C)C)C(=O)NC(=O)NC1=O | 1.71
13 | C=C(Br)CC1(C(C)C)C(=O)NC(=O)NC1=O | 1.47
14 | C=CCC1(C(C)C)C(=O)NC(=O)NC1=O | 1.22
15 | C=CCC1(C2=CCCC2)C(=O)NC(=O)N(C)C1=O (configuration not stated) | 1.89
16 | C=CCC1(C2C=CCC2)C(=O)NC(=O)NC1=O (configuration not stated) | 1.51
17 | CCCC1(CC)C(=O)NC(=O)NC1=O | 0.66
18 | CCC1(C2=CCCCC2)C(=O)NC(=O)NC1=O | 1.77
19 | CCCCCCCC1(CC)C(=O)NC(=O)NC1=O | 2.91
20 | C=CCC1(C(C)CCC)C(=O)NC(=O)NC1=O (configuration not stated) | 1.97
21 | CCCCCCC1(CC)C(=O)NC(=O)NC1=O | 2.46
22 | C=C(Br)CC1(C(C)C)C(=O)NC(=O)N(C)C1=O (configuration not stated) | 2.11

Reference: the SangsterLogP compilation
